# Assay results from US11607458B2 (Georgia State University Research Foundation, Inc, priority 2017, dated 2023).
# Assay: HPLC studies of reaction kinetics of tetrazine prodrugs with cyclooctyne alkynes (Kobs, second-order rate constant k2)
# Format: physicochemical
# Settings: for Kobs: prodrug 25 μM; for k2 at 37° C. (second order rate constant) / k2 at r.t (second order rate constant): PBS containing 10% DMSO, n = 3
# Procedure: Stock solution preparation. Each of the tetrazine prodrugs (compounds 1b, 1c, and 1d) was dissolved in DMSO to afford a 500-μM stock solution. Each of the alkynes (compounds 2a, 2b, 2c, and 2d) was dissolved in DMSO to afford a 50-mM stock solution. Doxorubicin (Dox) and dansylamino compound (DA) 1.1b were each dissolved in DMSO to afford 1-mM stock solutions.
# (§1) HPLC method A.: mobile phase A (10 mM NaH2PO4 in water, pH=5.0) and mobile phase B (ACN), flow rate: 1 mL/min, running time: 30 min, the gradient elution method: 25% B from 0 to 6 min, 25% to 50% B from 6 to 8 min, 50% B from 8 to 15 min, 50% to 99% B from 15 to 20 min, 99% B from 20 to 25 min, 99% to 25% B from 25 to 30 min. Detection wavelength: 256 nm. Column: Waters C18 3.5 μM, 4.6×100 mm. Injection volume: 20 μL.
# as §1, with “method B:” for “method A.:”, “method: 30%” for “method: 25%”, “min, 30%” for “min, 25%”, “25 min.” for “25 min,”, “to 30%” for “to 25%”, “Detection wavelength 1: 256, detection wavelength 2: 337” for “Detection wavelength: 256”
# General procedures HPLC studies of reaction kinetics. To three 20-ml vials with 9 mL PBS were added a solution of tetrazine prodrug (500 μL, 500 μM). 350 μL, 300 μL and 250 μL DMSO were added to vial respectively, and then 150 μL, 200 μL and 250 μL of the alkyne solution (50 mM in DMSO) were added to the vials to afford final concentrations of alkyne 0.75 mM, 1 mM and 1.25 mM in PBS (10% DMSO, 25 μM prodrug) respectively. The reaction was stirred at r.t or 37° C. respectively. Every 30 min about 500 μL reaction mixtures were taken out and 20 μL of them were injected into the HPLC by the autosampler; the rest of them were poured back to the reaction mixture. (Note: In the cases of prodrugs 1d or 1b reacting with alkyne 2d at 37° C., the final concentrations of 2d in the kinetic studies were 250 μM, 300 μM and 350 μM).
# Determination of second-order rate constants. The reaction rate constant, kobs, was calculated for each concentration of the alkyne by fitting the prodrug areas versus time using eq. 1: Y=A exp(−kobst) eq. 1 where Y is the prodrug area, and t is time. The pseudo-first-order rate constant, kobs, was then plotted against the concentration of alkyne to yield the second-order rate constant using eq 2: kobs=k2[Alkyne] eq. 2 where k2 is the second-order rate constant.
smiles,measurement,setting,value
C#CCOc1ccc(-c2nnc(C(=O)NC3CC(OC4CC(O)(C(=O)CO)Cc5c(O)c6c(c(O)c54)C(=O)c4c(OC)cccc4C6=O)OC(C)C3O)nn2)cc1 (centres unmarked) [1b],Kobs,"37° C., alkyne 2a 0.75 mM, Expt. 1",0.418 h⁻¹
same,Kobs,"37° C., alkyne 2a 0.75 mM, Expt. 2",0.438 h⁻¹
same,Kobs,"37° C., alkyne 2a 0.75 mM, Expt. 3",0.495 h⁻¹
same,Kobs,"37° C., alkyne 2a 1.00 mM, Expt. 1",0.546 h⁻¹
same,Kobs,"37° C., alkyne 2a 1.00 mM, Expt. 2",0.598 h⁻¹
same,Kobs,"37° C., alkyne 2a 1.00 mM, Expt. 3",0.678 h⁻¹
same,Kobs,"37° C., alkyne 2a 1.25 mM, Expt. 1",0.673 h⁻¹
same,Kobs,"37° C., alkyne 2a 1.25 mM, Expt. 2",0.739 h⁻¹
same,Kobs,"37° C., alkyne 2a 1.25 mM, Expt. 3",0.857 h⁻¹
same,Kobs,"37° C., alkyne 2b 0.75 mM, Expt. 1",0.486 h⁻¹
same,Kobs,"37° C., alkyne 2b 0.75 mM, Expt. 2",0.503 h⁻¹
same,Kobs,"37° C., alkyne 2b 0.75 mM, Expt. 3",0.533 h⁻¹
same,Kobs,"37° C., alkyne 2b 1.00 mM, Expt. 1",0.635 h⁻¹
same,Kobs,"37° C., alkyne 2b 1.00 mM, Expt. 2",0.672 h⁻¹
same,Kobs,"37° C., alkyne 2b 1.00 mM, Expt. 3",0.622 h⁻¹
same,Kobs,"37° C., alkyne 2b 1.25 mM, Expt. 1",0.783 h⁻¹
same,Kobs,"37° C., alkyne 2b 1.25 mM, Expt. 2",0.846 h⁻¹
same,Kobs,"37° C., alkyne 2b 1.25 mM, Expt. 3",0.905 h⁻¹
same,Kobs,"37° C., alkyne 2c 0.75 mM, Expt. 1",0.0607 h⁻¹
same,Kobs,"37° C., alkyne 2c 0.75 mM, Expt. 2",0.0671 h⁻¹
same,Kobs,"37° C., alkyne 2c 0.75 mM, Expt. 3",0.0696 h⁻¹
same,Kobs,"37° C., alkyne 2c 1.00 mM, Expt. 1",0.0798 h⁻¹
same,Kobs,"37° C., alkyne 2c 1.00 mM, Expt. 2",0.0895 h⁻¹
same,Kobs,"37° C., alkyne 2c 1.00 mM, Expt. 3",0.0941 h⁻¹
same,Kobs,"37° C., alkyne 2c 1.25 mM, Expt. 1",0.0986 h⁻¹
same,Kobs,"37° C., alkyne 2c 1.25 mM, Expt. 2",0.112 h⁻¹
same,Kobs,"37° C., alkyne 2c 1.25 mM, Expt. 3",0.119 h⁻¹
same,Kobs,"37° C., alkyne 2d 0.25 mM, Expt. 1",1.90 h⁻¹
same,Kobs,"37° C., alkyne 2d 0.25 mM, Expt. 2",1.81 h⁻¹
same,Kobs,"37° C., alkyne 2d 0.25 mM, Expt. 3",1.97 h⁻¹
same,Kobs,"37° C., alkyne 2d 0.3 mM, Expt. 1",2.28 h⁻¹
same,Kobs,"37° C., alkyne 2d 0.3 mM, Expt. 2",2.15 h⁻¹
same,Kobs,"37° C., alkyne 2d 0.3 mM, Expt. 3",2.38 h⁻¹
same,Kobs,"37° C., alkyne 2d 0.35 mM, Expt. 1",2.65 h⁻¹
same,Kobs,"37° C., alkyne 2d 0.35 mM, Expt. 2",2.48 h⁻¹
same,Kobs,"37° C., alkyne 2d 0.35 mM, Expt. 3",2.78 h⁻¹
same,k2 at 37° C. (second order rate constant),"alkyne 2a, 37° C.",0.17 M⁻¹ s⁻¹
same,k2 at 37° C. (second order rate constant),"alkyne 2a, 37° C., listed as lb",0.17 ± 0.05 M⁻¹ s⁻¹
same,k2 at r.t (second order rate constant),"alkyne 2a, r.t",0.061 ± 0.013 M⁻¹ s⁻¹
same,k2 at 37° C. (second order rate constant),"alkyne 2b, 37° C.",0.19 M⁻¹ s⁻¹
same,k2 at 37° C. (second order rate constant),"alkyne 2b, 37° C., listed as lb",0.19 ± 0.04 M⁻¹ s⁻¹
same,k2 at r.t (second order rate constant),"alkyne 2b, r.t",0.065 ± 0.013 M⁻¹ s⁻¹
same,k2 at 37° C. (second order rate constant),"alkyne 2c, 37° C.",0.025 ± 0.006 M⁻¹ s⁻¹
same,k2 at r.t (second order rate constant),"alkyne 2c, r.t",0.0078 ± 0.0009 M⁻¹ s⁻¹
same,k2 at 37° C. (second order rate constant),"alkyne 2d, 37° C.",2.1 M⁻¹ s⁻¹
same,k2 at 37° C. (second order rate constant),"alkyne 2d, 37° C., listed as lb",2.1 ± 0.4 M⁻¹ s⁻¹
same,k2 at r.t (second order rate constant),"alkyne 2d, r.t",0.36 ± 0.07 M⁻¹ s⁻¹
same,Kobs,"r.t, alkyne 2a 0.75 mM, Expt. 1",0.183 h⁻¹
same,Kobs,"r.t, alkyne 2a 0.75 mM, Expt. 2",0.191 h⁻¹
same,Kobs,"r.t, alkyne 2a 0.75 mM, Expt. 3",0.185 h⁻¹
same,Kobs,"r.t, alkyne 2a 1.00 mM, Expt. 1",0.235 h⁻¹
same,Kobs,"r.t, alkyne 2a 1.00 mM, Expt. 2",0.246 h⁻¹
same,Kobs,"r.t, alkyne 2a 1.00 mM, Expt. 3",0.247 h⁻¹
same,Kobs,"r.t, alkyne 2a 1.25 mM, Expt. 1",0.289 h⁻¹
same,Kobs,"r.t, alkyne 2a 1.25 mM, Expt. 2",0.295 h⁻¹
same,Kobs,"r.t, alkyne 2a 1.25 mM, Expt. 3",0.307 h⁻¹
same,Kobs,"r.t, alkyne 2b 0.75 mM, Expt. 1",0.201 h⁻¹
same,Kobs,"r.t, alkyne 2b 0.75 mM, Expt. 2",0.195 h⁻¹
same,Kobs,"r.t, alkyne 2b 0.75 mM, Expt. 3",0.197 h⁻¹
same,Kobs,"r.t, alkyne 2b 1.00 mM, Expt. 1",0.261 h⁻¹
same,Kobs,"r.t, alkyne 2b 1.00 mM, Expt. 2",0.257 h⁻¹
same,Kobs,"r.t, alkyne 2b 1.00 mM, Expt. 3",0.261 h⁻¹
same,Kobs,"r.t, alkyne 2b 1.25 mM, Expt. 1",0.309 h⁻¹
same,Kobs,"r.t, alkyne 2b 1.25 mM, Expt. 2",0.318 h⁻¹
same,Kobs,"r.t, alkyne 2b 1.25 mM, Expt. 3",0.326 h⁻¹
same,Kobs,"r.t, alkyne 2c 0.75 mM, Expt. 1",0.0202 h⁻¹
same,Kobs,"r.t, alkyne 2c 0.75 mM, Expt. 2",0.0209 h⁻¹
same,Kobs,"r.t, alkyne 2c 0.75 mM, Expt. 3",0.0207 h⁻¹
same,Kobs,"r.t, alkyne 2c 1.00 mM, Expt. 1",0.0282 h⁻¹
same,Kobs,"r.t, alkyne 2c 1.00 mM, Expt. 2",0.0262 h⁻¹
same,Kobs,"r.t, alkyne 2c 1.00 mM, Expt. 3",0.0278 h⁻¹
same,Kobs,"r.t, alkyne 2c 1.25 mM, Expt. 1",0.0353 h⁻¹
same,Kobs,"r.t, alkyne 2c 1.25 mM, Expt. 2",0.0341 h⁻¹
same,Kobs,"r.t, alkyne 2c 1.25 mM, Expt. 3",0.0344 h⁻¹
same,Kobs,"r.t, alkyne 2d 0.75 mM, Expt. 1",0.894 h⁻¹
same,Kobs,"r.t, alkyne 2d 0.75 mM, Expt. 2",0.976 h⁻¹
same,Kobs,"r.t, alkyne 2d 0.75 mM, Expt. 3",0.993 h⁻¹
same,Kobs,"r.t, alkyne 2d 1.00 mM, Expt. 1",1.18 h⁻¹
same,Kobs,"r.t, alkyne 2d 1.00 mM, Expt. 2",1.30 h⁻¹
same,Kobs,"r.t, alkyne 2d 1.00 mM, Expt. 3",1.34 h⁻¹
same,Kobs,"r.t, alkyne 2d 1.25 mM, Expt. 1",1.47 h⁻¹
same,Kobs,"r.t, alkyne 2d 1.25 mM, Expt. 2",1.62 h⁻¹
same,Kobs,"r.t, alkyne 2d 1.25 mM, Expt. 3",1.69 h⁻¹
